In ChEMBL document CHEMBL3393045, “Discovery of thienoimidazole-based HCV NS5A inhibitors. Part 2: non-symmetric inhibitors with potent activity against genotype 1a and 1b” (Bioorg Med Chem Lett, 2015):

How the values were obtained:
[1] = Cytotoxicity against human HuhET cells by [3H]thymidine incorporation assay; format: cell-based
[2] = Metabolic stability in human liver microsomes assessed as remaining parent compound level at 5 uM after 30 mins in presence of NADPH and UDPGA; format: ADME; conditions: read-out: Stability
[3] = Metabolic stability in rat liver microsomes assessed as remaining parent compound level at 5 uM after 30 mins in presence of NADPH and UDPGA; format: ADME; conditions: read-out: Stability
[4] = biological target: Cytochrome P450 3A4 (Homo sapiens, UniProt P08684); assay: Inhibition of CYP3A4 (unknown origin); format: ADME
Sequence of Cytochrome P450 3A4 (P08684 whole entry): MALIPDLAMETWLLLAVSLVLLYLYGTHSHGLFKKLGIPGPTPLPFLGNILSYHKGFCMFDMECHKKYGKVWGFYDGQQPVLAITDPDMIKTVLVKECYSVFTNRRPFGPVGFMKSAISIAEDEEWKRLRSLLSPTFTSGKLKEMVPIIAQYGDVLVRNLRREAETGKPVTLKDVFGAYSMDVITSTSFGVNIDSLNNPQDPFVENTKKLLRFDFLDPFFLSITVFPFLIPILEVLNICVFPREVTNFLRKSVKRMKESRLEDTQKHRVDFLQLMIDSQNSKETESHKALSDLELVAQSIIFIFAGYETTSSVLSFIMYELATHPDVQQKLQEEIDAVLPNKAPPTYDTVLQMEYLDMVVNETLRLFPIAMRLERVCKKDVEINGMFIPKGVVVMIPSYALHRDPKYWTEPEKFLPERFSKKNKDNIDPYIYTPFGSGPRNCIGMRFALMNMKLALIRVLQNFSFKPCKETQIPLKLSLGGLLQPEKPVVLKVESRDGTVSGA

[5] = biological target: Cytochrome P450 2C9 (Homo sapiens, UniProt P11712); assay: Inhibition of CYP2C9 (unknown origin); format: ADME
Sequence of Cytochrome P450 2C9 (P11712 whole entry): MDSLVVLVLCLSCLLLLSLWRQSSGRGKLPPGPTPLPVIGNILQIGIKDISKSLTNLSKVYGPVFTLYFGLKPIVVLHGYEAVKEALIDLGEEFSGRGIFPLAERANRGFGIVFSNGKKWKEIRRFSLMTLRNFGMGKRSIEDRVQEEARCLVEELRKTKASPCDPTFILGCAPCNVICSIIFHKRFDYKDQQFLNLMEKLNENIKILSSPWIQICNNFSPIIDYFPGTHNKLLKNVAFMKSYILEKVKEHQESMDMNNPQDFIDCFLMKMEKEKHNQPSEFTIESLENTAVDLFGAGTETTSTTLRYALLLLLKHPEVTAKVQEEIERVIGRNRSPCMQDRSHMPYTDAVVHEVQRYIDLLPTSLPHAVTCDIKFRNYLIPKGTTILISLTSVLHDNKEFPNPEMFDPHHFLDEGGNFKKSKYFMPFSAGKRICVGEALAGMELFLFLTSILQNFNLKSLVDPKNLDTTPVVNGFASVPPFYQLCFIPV

[6] = biological target: Cytochrome P450 2D6 (Homo sapiens, UniProt P10635); assay: Inhibition of CYP2D6 (unknown origin); format: ADME
Sequence of Cytochrome P450 2D6 (P10635 whole entry): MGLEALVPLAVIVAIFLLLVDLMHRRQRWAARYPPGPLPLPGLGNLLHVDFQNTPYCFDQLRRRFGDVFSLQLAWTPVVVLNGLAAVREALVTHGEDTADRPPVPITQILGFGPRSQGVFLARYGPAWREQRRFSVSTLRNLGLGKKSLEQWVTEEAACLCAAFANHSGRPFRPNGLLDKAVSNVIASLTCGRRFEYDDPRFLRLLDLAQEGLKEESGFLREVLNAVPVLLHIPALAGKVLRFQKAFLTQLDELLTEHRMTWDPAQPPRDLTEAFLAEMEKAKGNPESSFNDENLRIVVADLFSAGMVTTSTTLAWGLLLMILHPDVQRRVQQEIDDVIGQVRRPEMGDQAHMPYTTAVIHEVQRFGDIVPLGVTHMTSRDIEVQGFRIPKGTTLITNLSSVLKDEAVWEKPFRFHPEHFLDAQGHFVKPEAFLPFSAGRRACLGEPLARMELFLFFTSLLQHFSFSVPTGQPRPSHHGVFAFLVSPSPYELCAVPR

[7] = biological target: Voltage-gated inwardly rectifying potassium channel KCNH2 (Homo sapiens, UniProt Q12809); assay: Inhibition of human ERG by Q-patch assay
Sequence of Voltage-gated inwardly rectifying potassium channel KCNH2 (Q12809 whole entry): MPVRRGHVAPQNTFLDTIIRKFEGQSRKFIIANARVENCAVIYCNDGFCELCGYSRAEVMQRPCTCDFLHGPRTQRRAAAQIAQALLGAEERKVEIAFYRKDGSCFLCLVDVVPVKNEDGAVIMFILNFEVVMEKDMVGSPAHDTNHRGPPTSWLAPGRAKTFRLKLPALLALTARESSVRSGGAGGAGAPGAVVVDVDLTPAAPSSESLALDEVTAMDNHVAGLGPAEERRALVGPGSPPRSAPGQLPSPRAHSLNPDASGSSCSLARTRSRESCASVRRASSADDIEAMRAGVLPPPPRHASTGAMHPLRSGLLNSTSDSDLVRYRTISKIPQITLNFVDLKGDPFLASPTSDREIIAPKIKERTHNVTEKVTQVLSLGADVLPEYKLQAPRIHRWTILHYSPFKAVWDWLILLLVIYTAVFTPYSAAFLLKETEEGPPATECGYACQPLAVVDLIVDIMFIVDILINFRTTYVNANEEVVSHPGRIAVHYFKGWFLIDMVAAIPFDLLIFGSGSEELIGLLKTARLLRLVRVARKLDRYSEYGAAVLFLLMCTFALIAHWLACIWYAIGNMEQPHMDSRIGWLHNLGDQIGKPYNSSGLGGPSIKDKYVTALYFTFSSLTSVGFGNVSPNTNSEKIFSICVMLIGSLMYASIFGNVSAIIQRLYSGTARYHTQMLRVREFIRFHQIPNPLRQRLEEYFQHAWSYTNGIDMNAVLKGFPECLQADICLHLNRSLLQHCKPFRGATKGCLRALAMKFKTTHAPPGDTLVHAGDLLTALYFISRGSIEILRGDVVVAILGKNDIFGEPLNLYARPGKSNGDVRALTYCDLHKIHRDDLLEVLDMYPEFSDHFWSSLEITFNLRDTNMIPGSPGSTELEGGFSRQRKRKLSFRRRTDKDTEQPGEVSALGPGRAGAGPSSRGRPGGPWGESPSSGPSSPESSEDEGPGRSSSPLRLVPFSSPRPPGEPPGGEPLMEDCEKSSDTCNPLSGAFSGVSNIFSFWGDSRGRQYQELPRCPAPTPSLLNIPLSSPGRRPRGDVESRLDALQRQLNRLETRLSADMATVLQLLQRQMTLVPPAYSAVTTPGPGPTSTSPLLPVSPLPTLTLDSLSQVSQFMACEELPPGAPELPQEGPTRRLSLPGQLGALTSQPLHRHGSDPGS

[8] = system: Rattus norvegicus; assay: (§1) Cmax in Sprague-Dawley rat at 3 mg/kg, po; format: ADME, organism-based; set-up: dose 3 mg/kg, route oral; conditions: in vivo
[9] = system: Hepatitis C virus; assay: Antiviral activity against HCV genotype 1a infected in W11.8 cells assessed as decrease in NS5A expression in replicon cell after 4 days by luminescence based ELISA; format: functional, Hepacivirus hominis; conditions: subtype 1a, W11.8, 96 h
[10] = system: Hepatitis C virus; assay: Antiviral activity against HCV genotype 1b infected in human Huh-5.2 cells assessed as decrease in HCV replicon RNA replication after 4 days by luciferase assay; format: functional, cell-based, Hepacivirus hominis; conditions: Huh-5-2, 96 h
[11] = Clearance in Sprague-Dawley rat at 3 mg/kg, iv; format: ADME, organism-based; set-up: dose 3 mg/kg, route intravenous; conditions: in vivo
[12] = Half life in Sprague-Dawley rat at 3 mg/kg, iv; format: ADME, organism-based; set-up: dose 3 mg/kg, route intravenous; conditions: in vivo
[13] = Volume of distribution at steady state in Sprague-Dawley rat at 3 mg/kg, iv; format: ADME, organism-based; set-up: dose 3 mg/kg, route intravenous; conditions: in vivo, read-out: Vdss
[14] = AUC (0 to 8 hrs) in Sprague-Dawley rat at 3 mg/kg, po; format: ADME, organism-based; set-up: time < 8 hr, dose 3 mg/kg, route oral; conditions: plasma
[15] = Half life in Sprague-Dawley rat at 3 mg/kg, po; format: ADME, organism-based; set-up: dose 3 mg/kg, route oral; conditions: in vivo
[16] = as §1; format: ADME, organism-based; set-up: dose 3 mg/kg, route oral; conditions: Sprague-Dawley, in vivo
[17] = Oral bioavailability in Sprague-Dawley rat at 3 mg/kg; format: ADME, organism-based; conditions: in vivo

EC50 [9] | EC50 [10] | SMILES | CC50 [1] | also measured
828 nM | 0.215 nM | COC(=O)N[C@H](C(=O)N1CCC[C@H]1c1nc2cc(C#Cc3cc4[nH]c([C@@H]5CCCN5C(=O)[C@@H](NC(=O)OC)C(C)C)nc4s3)ccc2[nH]1)C(C)C | – | –
0.053 nM | 0.012 nM | COC(=O)N[C@H](C(=O)N1C[C@@H](C)C[C@H]1c1ncc(-c2ccc(-c3cc4sc(-c5cc6[nH]c([C@@H]7C[C@H](C)CN7C(=O)[C@@H](NC(=O)OC)C(C)C)nc6s5)cc4s3)cc2)[nH]1)C(C)C | > 20 µM | –
0.017 nM | 0.004 nM | COC(=O)N[C@H](C(=O)N1C[C@@H](C)C[C@H]1c1ncc(-c2ccc(-c3ccc(-c4cc5[nH]c([C@@H]6C[C@H](C)CN6C(=O)[C@@H](NC(=O)OC)C(C)C)nc5s4)s3)cc2)[nH]1)C(C)C | 13.3 µM | remaining at 0.5 h, 5 µM [2]: 100%; remaining at 0.5 h, 5 µM [3]: 100%; IC50 [4]: > 30 µM; IC50 [5]: 21 µM; IC50 [6]: > 30 µM; IC50 [7]: 25.1 µM; clearance [11]: 6.9 mL/min/kg; half-life [12]: 402 min; Vd [13]: 3.8 L/kg; AUC(0-t) at 8 h [14]: 440 ng·h/mL; half-life [15]: 588 min; Cmax [16]: 10 ng/mL; bioavailability [17]: 11%
0.037 nM | 0.002 nM | COC(=O)N[C@H](C(=O)N1C[C@@H](C)C[C@H]1c1ncc(-c2ccc(-c3ccc(-c4cc5[nH]c([C@@H]6C[C@H](C)CN6C(=O)[C@@H](NC(=O)OC)C(C)C)nc5s4)cc3C)cc2)[nH]1)C(C)C | 19.2 µM | –

The remaining lines, values behind:

SMILES | EC50 [9] | EC50 [10] | CC50 [1] | also measured
COC(=O)N[C@H](C(=O)N1C[C@@H](C)C[C@H]1c1ncc(-c2ccc(-c3ccc(-c4cc5[nH]c([C@@H]6C[C@H](C)CN6C(=O)[C@@H](NC(=O)OC)C(C)C)nc5s4)cc3)cc2)[nH]1)C(C)C | – | – | > 20 µM | remaining at 0.5 h, 5 µM [2]: 90%; remaining at 0.5 h, 5 µM [3]: 100%; IC50 [4]: > 30 µM; IC50 [5]: > 30 µM; IC50 [6]: > 30 µM; IC50 [7]: > 40 µM; Cmax [8]: 0.03 µg/mL
COC(=O)N[C@H](C(=O)N1C[C@@H](C)C[C@H]1c1nc2cc(-c3ccc(-c4cc5[nH]c([C@@H]6C[C@H](C)CN6C(=O)[C@@H](NC(=O)OC)C(C)C)nc5s4)cc3)ccc2[nH]1)C(C)C | 0.6 nM | – | > 20 µM | –
COC(=O)N[C@H](C(=O)N1C[C@@H](C)C[C@H]1c1nc2cc(C#Cc3cc4[nH]c([C@@H]5C[C@H](C)CN5C(=O)[C@@H](NC(=O)OC)C(C)C)nc4s3)ccc2[nH]1)C(C)C | 39 nM | 0.011 nM | – | –
COC(=O)N[C@H](C(=O)N1C[C@@H](C)C[C@H]1c1nc2sc(-c3ccc(-c4ccc5c(c4)nc([C@@H]4C[C@H](C)CN4C(=O)[C@@H](NC(=O)OC)C(C)C)n5C)cc3)cc2[nH]1)C(C)C | 13 nM | 0.019 nM | > 20 µM | –
COC(=O)N[C@H](C(=O)N1C[C@@H](C)C[C@H]1c1cc2cc(-c3ccc(-c4cc5[nH]c([C@@H]6C[C@H](C)CN6C(=O)[C@@H](NC(=O)OC)C(C)C)nc5s4)cc3)ccc2[nH]1)C(C)C | 100 nM | 0.045 nM | > 20 µM | –
COC(=O)N[C@H](C(=O)N1C[C@@H](C)C[C@H]1c1nc2sc(-c3ccc(-c4ccc5oc([C@@H]6C[C@H](C)CN6C(=O)[C@@H](NC(=O)OC)C(C)C)nc5c4)cc3)cc2[nH]1)C(C)C | 18 nM | 0.115 nM | > 20 µM | –
COC(=O)N[C@H](C(=O)N1C[C@@H](C)C[C@H]1c1cn2ccc(-c3ccc(-c4cc5[nH]c([C@@H]6C[C@H](C)CN6C(=O)[C@@H](NC(=O)OC)C(C)C)nc5s4)cc3)cc2n1)C(C)C | 0.3 nM | 0.041 nM | 15.3 µM | –
COC(=O)N[C@H](C(=O)N1C[C@@H](C)C[C@H]1c1ncc(-c2ccc(-c3ccc(-c4cc5[nH]c([C@@H]6C[C@H](C)CN6C(=O)[C@@H](NC(=O)OC)C(C)C)nc5s4)c(F)c3)cc2)[nH]1)C(C)C | 0.023 nM | 0.002 nM | > 20 µM | –
COC(=O)N[C@H](C(=O)N1C[C@@H](C)C[C@H]1c1ncc(-c2ccc(-c3ccc(-c4cc5[nH]c([C@@H]6C[C@H](C)CN6C(=O)[C@@H](NC(=O)OC)C(C)C)nc5s4)cc3F)cc2)[nH]1)C(C)C | 0.023 nM | 0.006 nM | 20 µM | –
COC(=O)N[C@H](C(=O)N1C[C@@H](C)C[C@H]1c1ncc(-c2ccc(-c3ccc(-c4cc5[nH]c([C@@H]6C[C@H](C)CN6C(=O)[C@@H](NC(=O)OC)C(C)C)nc5s4)c(C)c3)cc2)[nH]1)C(C)C | 0.037 nM | 0.004 nM | > 20 µM | –
